Measurements: ChEMBL document CHEMBL4321865, “Discovery of Novel Inhibitors of LpxC Displaying Potent in Vitro Activity against Gram-Negative Bacteria” (J Med Chem, 2020)
≈ marks a conversion by molar mass, not a printed value.

Tests used:
Pseudomonas aeruginosa [1] = assay: Antimicrobial activity against Pseudomonas aeruginosa PA2616 harboring delta mexAB-OprM mutant by broth microdilution method; type: functional
[2] = tested on: T1, UDP-3-O-acyl-N-acetylglucosamine deacetylase (Escherichia coli K-12), P0A725 [C125S]
T1 sequence (whole entry): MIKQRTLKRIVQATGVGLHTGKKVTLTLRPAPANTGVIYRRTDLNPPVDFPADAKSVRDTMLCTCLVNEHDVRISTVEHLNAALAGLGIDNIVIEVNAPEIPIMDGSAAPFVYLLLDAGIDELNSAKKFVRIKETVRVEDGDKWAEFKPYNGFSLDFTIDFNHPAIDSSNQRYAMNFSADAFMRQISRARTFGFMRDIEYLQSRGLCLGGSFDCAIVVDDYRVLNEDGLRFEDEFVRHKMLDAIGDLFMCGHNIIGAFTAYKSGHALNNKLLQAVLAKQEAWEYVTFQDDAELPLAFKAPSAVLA

[3] = tested on: T2, UDP-3-O-acyl-N-acetylglucosamine deacetylase (Pseudomonas aeruginosa (strain ATCC 15692 / PAO1 / 1C / PRS 101 / LMG12228)), P47205 [C40S]
T2 sequence (whole entry): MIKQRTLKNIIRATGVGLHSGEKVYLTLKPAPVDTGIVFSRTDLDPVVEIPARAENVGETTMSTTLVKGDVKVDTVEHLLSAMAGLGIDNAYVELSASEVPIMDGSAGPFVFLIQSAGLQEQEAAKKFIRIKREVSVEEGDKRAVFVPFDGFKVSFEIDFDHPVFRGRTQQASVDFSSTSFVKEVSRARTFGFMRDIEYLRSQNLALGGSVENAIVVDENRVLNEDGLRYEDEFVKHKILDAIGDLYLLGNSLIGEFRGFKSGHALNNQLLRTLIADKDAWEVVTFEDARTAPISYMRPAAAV

physchem [4] = settings: n-octanol/phosphate buffered saline, pH 7.4
Description: n-Octanol/phosphate buffered saline partition coefficient, log D of the compound at pH 7.4 by LC-UV method

physchem [5] = settings: DMSO, pH 7
Description: Solubility of the compound in DMSO at pH 7 incubated for 24 hrs by LC-UV method

physchem [6] = settings: DMSO, pH 9
Description: Solubility of the compound in DMSO at pH 9 incubated for 24 hrs by LC-UV method

Escherichia coli [7] = assay: microbe, parasite or virus in culture; settings: ATCC 25922
Description: Antibacterial activity against wild-type Escherichia coli ATCC 25922 by broth microdilution method

Klebsiella pneumoniae = assay: microbe, parasite or virus in culture; settings: T 6474
Description: Antibacterial activity against multi-drug resistant Klebsiella pneumoniae T 6474 by broth microdilution method

Pseudomonas aeruginosa [8] = assay: microbe, parasite or virus in culture; settings: ATCC 27853
Description: Antimicrobial activity against Pseudomonas aeruginosa ATCC 27853 by broth microdilution method

Pseudomonas aeruginosa [9] = assay: microbe, parasite or virus in culture; settings: PAO1
Description: Antimicrobial activity against wild-type Pseudomonas aeruginosa PAO1 by broth microdilution method

Escherichia coli [10] = assay: Antibacterial activity against Escherichia coli infected in cyclophosphamide-induced NMRI/ICR CD-1 mouse model of neutropenic thigh infection assessed as reduction in thigh bacterial load at 50 mg/kg, sc measured after 22 hrs relative to control; type: functional
Escherichia coli [11] = assay: Antibacterial activity against Escherichia coli infected in cyclophosphamide-induced NMRI/ICR CD-1 mouse model of neutropenic thigh infection assessed as reduction in thigh bacterial load at 150 mg/kg, sc measured after 22 hrs relative to control; type: functional
[12] = Cmax in NMRI/ICR CD-1 mouse at 50 mg/kg, sc by LC-MS/MS analysis; type: ADME, organism-based; parameters: dose 50 mg/kg, route subcutaneous; settings: in vivo
[13] = AUC (0 to 24 hrs) in NMRI/ICR CD-1 mouse at 150 mg/kg, sc by LC-MS/MS analysis; type: ADME, organism-based; parameters: dose 150 mg/kg, time < 24 hr, route subcutaneous; settings: in vivo
[14] = Free AUC (0 to 24 hrs) in NMRI/ICR CD-1 mouse at 150 mg/kg, sc by LC-MS/MS analysis; type: ADME, organism-based; settings: in vivo
[15] = Apparent clearance in NMRI/ICR CD-1 mouse at 150 mg/kg, sc by LC-MS/MS analysis; type: ADME, organism-based; settings: in vivo
Mus musculus [16] = assay: Apparent unbound clearance in NMRI/ICR CD-1 mouse at 150 mg/kg, sc by LC-MS/MS analysis; type: ADME, organism-based; settings: in vivo
[17] = Tmax in NMRI/ICR CD-1 mouse at 150 mg/kg, sc by LC-MS/MS analysis; type: ADME, organism-based; settings: in vivo
[18] = mouse, plasma, 1 µM
Description: Protein binding in mouse plasma assessed as fraction unbound at 1 uM by equilibrium dialysis method

physchem [19] = settings: DMSO, pH 4
Description: Solubility of the compound in DMSO at pH 4 incubated for 24 hrs by LC-UV method

[20] = Free AUC (0 to 24 hrs) in NMRI/ICR CD-1 mouse at 75 mg/kg, sc by LC-MS/MS analysis; type: ADME, organism-based; settings: in vivo
[21] = Apparent clearance in NMRI/ICR CD-1 mouse at 75 mg/kg, sc by LC-MS/MS analysis; type: ADME, organism-based; settings: in vivo
Mus musculus [22] = assay: Apparent unbound clearance in NMRI/ICR CD-1 mouse at 75 mg/kg, sc by LC-MS/MS analysis; type: ADME, organism-based; settings: in vivo
in vivo = settings: NMRI/ICR CD-1, mouse, sc, 50 mg/kg
[23] = Apparent clearance in NMRI/ICR CD-1 mouse at 50 mg/kg, sc by LC-MS/MS analysis; type: ADME, organism-based; settings: in vivo
Mus musculus [24] = assay: Apparent unbound clearance in NMRI/ICR CD-1 mouse at 50 mg/kg, sc by LC-MS/MS analysis; type: ADME, organism-based; settings: in vivo
[25] = Tmax in NMRI/ICR CD-1 mouse at 50 mg/kg, sc by LC-MS/MS analysis; type: ADME, organism-based; settings: in vivo
Escherichia coli [26] = assay: Antibacterial activity against Escherichia coli infected in cyclophosphamide-induced NMRI/ICR CD-1 mouse model of neutropenic thigh infection assessed as reduction in thigh bacterial load at 450 mg/kg, sc administered as single dose measured after 22 hrs relative to control; type: functional
Escherichia coli [27] = assay: Antibacterial activity against Escherichia coli infected in cyclophosphamide-induced NMRI/ICR CD-1 mouse model of neutropenic thigh infection assessed as reduction in thigh bacterial load at 112.54 mg/kg, sc administered at 5.5 hrs interval for 4 times relative to control; type: functional
[28] = mouse, in vivo, sc, 50 mg/kg

## COc1ccc(-c2ccc3c(c2)oc(=O)n3CC[C@](C)(C(=O)NO)S(C)(=O)=O)c(F)c1
Pseudomonas aeruginosa [1]
  MIC: ≤ 0.06 µg/mL
[2]
  ΔTm: 8.2 °C
[3]
  ΔTm: 11 °C
Physchem [4]
  logD: 2.2
Physchem [5]
  solubility at 24 h: 7 µg/mL (≈ 15.5 µM)
Physchem [6]
  solubility at 24 h: 66 µg/mL (≈ 146 µM)
Escherichia coli [7]
  MIC: 0.5 µg/mL (≈ 1.11 µM)
Klebsiella pneumoniae
  MIC: 4 µg/mL (≈ 8.84 µM)
Pseudomonas aeruginosa [8]
  MIC: 8 µg/mL (≈ 17.7 µM)
Pseudomonas aeruginosa [9]
  MIC: 4 µg/mL (≈ 8.84 µM)

## COc1ccc(-c2cn(CC[C@@](C)(C(=O)NO)S(C)(=O)=O)c(=O)o2)c(F)c1
Pseudomonas aeruginosa [1]
  MIC: 16 µg/mL (≈ 39.8 µM)
[2]
  ΔTm: 1.9 °C
[3]
  ΔTm: 3.7 °C
Escherichia coli [7]
  MIC: > 32 µg/mL
Klebsiella pneumoniae
  MIC: > 32 µg/mL
Pseudomonas aeruginosa [8]
  MIC: > 32 µg/mL
Pseudomonas aeruginosa [9]
  MIC: > 32 µg/mL

## COc1ccc(-c2cc3c(s2)C(=O)N(CC[C@](C)(C(=O)NO)S(C)(=O)=O)C3)c(F)c1
Pseudomonas aeruginosa [1]
  MIC: 0.12 µg/mL (≈ 0.263 µM)
[2]
  ΔTm: 9.3 °C
[3]
  ΔTm: 12.4 °C
Physchem [4]
  logD: 2.1
Physchem [5]
  solubility at 24 h: 5 µg/mL (≈ 11 µM)
Physchem [6]
  solubility at 24 h: 36 µg/mL (≈ 78.9 µM)
Escherichia coli [7]
  MIC: ≤ 0.06 µg/mL
Klebsiella pneumoniae
  MIC: 0.25 µg/mL (≈ 0.548 µM)
Pseudomonas aeruginosa [8]
  MIC: 1 µg/mL (≈ 2.19 µM)
Pseudomonas aeruginosa [9]
  MIC: 0.5 µg/mL (≈ 1.1 µM)

## C[C@@](CCN1Cc2cc(C#CC#CC3(N)CC3)cn2C1=O)(C(=O)NO)S(C)(=O)=O.Cl
Escherichia coli [10]
  fold change (FC): 2.8
Escherichia coli [11]
  fold change (FC): 1.8
[12]
  Cmax: 8600 ng/mL
[13]
  AUC(0-t) at 24 h: 14900 ng·h/mL
[14]
  fAUC: 1160 ng·h/mL
[15]
  CL/F: 55.9 mL/min/kg
Mus musculus [16]
  CLu/F: 716 mL/min/kg
[17]
  Tmax: 30 min
[2]
  ΔTm: 10 °C
[3]
  ΔTm: 11.6 °C
[18]
  Fu: 0.078%
Physchem [5]
  solubility at 24 h: 418 µg/mL
Physchem [6]
  solubility at 24 h: 536 µg/mL
Physchem [19]
  solubility at 24 h: 571 µg/mL
Escherichia coli [7]
  MIC: 0.25 µg/mL
Klebsiella pneumoniae
  MIC: 0.25 µg/mL
Pseudomonas aeruginosa [8]
  MIC: 0.5 µg/mL
Pseudomonas aeruginosa [9]
  MIC: 0.5 µg/mL

## COc1ccc(-c2cc3n(c2)C(=O)N(CC[C@](C)(C(=O)NO)S(C)(=O)=O)C3)c(F)c1
Pseudomonas aeruginosa [1]
  MIC: 0.12 µg/mL (≈ 0.273 µM)
[2]
  ΔTm: 8.1 °C
[3]
  ΔTm: 11.5 °C
Physchem [4]
  logD: 1.8
Physchem [5]
  solubility at 24 h: 37 µg/mL (≈ 84.2 µM)
Physchem [6]
  solubility at 24 h: 302 µg/mL (≈ 687 µM)
Escherichia coli [7]
  MIC: 0.12 µg/mL (≈ 0.273 µM)
Klebsiella pneumoniae
  MIC: 0.25 µg/mL (≈ 0.569 µM)
Pseudomonas aeruginosa [8]
  MIC: 1 µg/mL (≈ 2.28 µM)
Pseudomonas aeruginosa [9]
  MIC: 0.5 µg/mL (≈ 1.14 µM)

## COc1ccc(-c2ccc3c(c2)CN(CC[C@](C)(C(=O)NO)S(C)(=O)=O)C3=O)c(F)c1
Pseudomonas aeruginosa [1]
  MIC: 0.25 µg/mL (≈ 0.555 µM)
[2]
  ΔTm: 9.1 °C
[3]
  ΔTm: 11 °C
Physchem [4]
  logD: 1.9
Physchem [5]
  solubility at 24 h: 5 µg/mL (≈ 11.1 µM)
Physchem [6]
  solubility at 24 h: 22 µg/mL (≈ 48.8 µM)
Escherichia coli [7]
  MIC: ≤ 0.06 µg/mL
Klebsiella pneumoniae
  MIC: ≤ 0.06 µg/mL
Pseudomonas aeruginosa [8]
  MIC: 2 µg/mL (≈ 4.44 µM)
Pseudomonas aeruginosa [9]
  MIC: 2 µg/mL (≈ 4.44 µM)

## COc1ccc(-c2ccn(CC[C@](C)(C(=O)NO)S(C)(=O)=O)c(=O)c2)c(F)c1
Pseudomonas aeruginosa [1]
  MIC: ≤ 0.06 µg/mL
[12]
  Cmax: 10300 ng/mL
[20]
  fAUC: 3620 ng·h/mL
[21]
  CL/F: 72 mL/min/kg
Mus musculus [22]
  CLu/F: 231 mL/min/kg
[18]
  Fu: 0.31%
In vivo
  AUC(0-t) at 24 h: 11700 ng·h/mL
Physchem [4]
  logD: 1.1
Physchem [5]
  solubility at 24 h: 130 µg/mL (≈ 315 µM)
Physchem [6]
  solubility at 24 h: 692 µg/mL (≈ 1680 µM)
Escherichia coli [7]
  MIC: ≤ 0.06 µg/mL
Klebsiella pneumoniae
  MIC: 0.25 µg/mL (≈ 0.606 µM)
Pseudomonas aeruginosa [8]
  MIC: 0.5 µg/mL (≈ 1.21 µM)
Pseudomonas aeruginosa [9]
  MIC: 0.25 to 0.5 µg/mL (≈ 0.606 to 1.21 µM)

## C[C@@](CCN1Cc2cc(C#CC#CC3(CO)CC3)cn2C1=O)(C(=O)NO)S(C)(=O)=O
Escherichia coli [10]
  fold change (FC): 2.1
Escherichia coli [11]
  fold change (FC): 0.8
[23]
  CL/F: 25.1 mL/min/kg
Mus musculus [24]
  CLu/F: 295 mL/min/kg
[12]
  Cmax: 20200 ng/mL
[25]
  Tmax: 30 min
Escherichia coli [26]
  fold change (FC): 1
Escherichia coli [27]
  fold change (FC): 1.5
[2]
  ΔTm: 9.9 °C
[3]
  ΔTm: 12.5 °C
[18]
  Fu: 0.085%
[28]
  fAUC: 2810 ng·h/mL
In vivo
  AUC(0-t) at 24 h: 33000 ng·h/mL
Escherichia coli [7]
  MIC: 0.25 µg/mL (≈ 0.577 µM)
Klebsiella pneumoniae
  MIC: 1 µg/mL (≈ 2.31 µM)
Pseudomonas aeruginosa [8]
  MIC: 0.5 µg/mL (≈ 1.15 µM)
Pseudomonas aeruginosa [9]
  MIC: 1 µg/mL (≈ 2.31 µM)
